From the NIST ThermoML archive (doi:10.1016/j.jct.2011.08.009)
Where “and” joins values, the source holds several entries; their conditions need not be identical. Identical values can stand only once.

Conditions: Liquid, Closed cell (Static) method

CCC(C)N (stereo unspecified) [2-butanamine]
Conditions	vapor or sublimation pressure
274.06 K	6.81 kPa
274.09 K	6.804 kPa
283.91 K	11.46 kPa
293.15 K	18.43 kPa
293.88 K	19.21 kPa
303.15 K	29.11 kPa
303.84 K	30.04 kPa and 30.03 kPa
313.15 K	44.25 kPa
313.81 K	45.47 kPa and 45.38 kPa
323.15 K	65.05 kPa
323.92 K	66.77 kPa
333.15 K	92.82 kPa
333.91 K	95.07 kPa and 95.08 kPa and 95.1 kPa
343.15 K	128.99 kPa
343.86 K	132.08 kPa and 132.05 kPa
353.15 K	175.09 kPa
353.9 K	179.16 kPa and 178.99 kPa
363.15 K	232.69 kPa

NC1CCCCC1 [cyclohexylamine]
Conditions	vapor or sublimation pressure
273.15 K	0.2306 kPa
274.3 K	0.2512 kPa
283.15 K	0.4646 kPa
283.86 K	0.4861 kPa
293.15 K	0.8833 kPa
293.83 K	0.9213 kPa
293.86 K	0.9213 kPa
293.88 K	0.9229 kPa and 0.9217 kPa
303.15 K	1.596 kPa
303.79 K	1.661 kPa
303.82 K	1.66 kPa
303.84 K	1.661 kPa
313.15 K	2.756 kPa
313.79 K	2.852 kPa
313.81 K	2.854 kPa
323.15 K	4.573 kPa
323.92 K	4.755 kPa
323.97 K	4.757 kPa
323.99 K	4.757 kPa and 4.758 kPa
333.15 K	7.32 kPa
334 K	7.563 kPa
343.15 K	11.35 kPa
344 K	12.08 kPa
353.15 K	17.98 kPa
354.06 K	17.65 kPa
363.15 K	25.06 kPa
364.1 K	25.96 kPa
364.13 K	25.94 kPa and 25.96 kPa

O [water]
Conditions	vapor or sublimation pressure [kPa]
273.15 K	0.5817
283.15 K	1.186
293.15 K	2.281
303.15 K	4.172
313.15 K	7.294
323.15 K	12.25
333.15 K	19.84
343.15 K	31.11
353.15 K	47.37
363.15 K	70.25
